Results on 5 molecules are retold here after patent publication US10730836B2, “Forms of apremilast” (Johnson Matthey Public Limited Company, priority 2016, dated 2020).

Data set [1] can be described thus: Solid form stability under stressed conditions (45° C., relative humidity>95%). The class given is physicochemical. The conditions noted are these: under 45° C. and humid conditions (relative humidity>95%). As for the experimental part: Apremilast Form H, a solvate, is a unique crystalline phase. […] FIG. 1 is a representative XPRD pattern for a representative sample of apremilast Form H made according to Example 1. Apremilast Form H is stable under stressed conditions, i.e. at under 45° C. and humid conditions (relative humidity>95%).
Apremilast Form I, a solvate, is a unique crystalline phase. […] FIG. 2 is a representative XRPD pattern for a representative sample of apremilast Form I made according to Example 2. Apremilast Form I is stable under stressed conditions, i.e. at under 45° C. and humid conditions (relative humidity>95%).

Data set [2] can be described thus: Drying under vacuum at 45° C. (solid form change). The class given is physicochemical. The conditions noted are these: dried under vacuum at 45° C. The procedure:
Apremilast Form J, a solvate, is a unique crystalline phase. […] FIG. 3 is a representative XRPD pattern for a representative sample of apremilast Form J made according to Example 3.
(§1) Apremilast Form M, a solvate, is a unique crystalline phase. FIG. 5 is a representative XRPD pattern for a representative sample of apremilast Form M made according to Example 5.
[…] The resulting solids are analyzed by XRPD and identified as apremilast Form K.

In data set [3] the test system is human rheumatoid synovial cells. The conditions noted are these: cited from earlier work.
Another data set has as its system phosphodiesterase (PDE4). The conditions noted are these: cited from earlier work.
The nature of data set [4]: Moisture uptake on exposure to air (DSC/TGA). The conditions noted are these: DSC thermogram and TGA plot show water in sample. The class given is physicochemical. The procedure: DSC data were collected using a TA Instruments Q10 DSC. Approximately, samples (2-8 mg) were placed in unsealed but covered hermetic alodined aluminum sample pans and scanned from 30 to 300° C. at a rate of 10° C./min under a nitrogen purge of 50 mL/min.
TGA data were collected using a TA Instruments TGA Q500. Approximately, samples (5-10 mg) were placed in an open, pre-tared aluminum sample pan and scanned from 25 to 300° C. at a rate of 10° C./min using a nitrogen purge at 60 mL/min.
(§2) Apremilast Form K, an anhydrous form, is a unique crystalline phase. […] FIG. 4 is a representative XRPD pattern for a representative sample of apremilast Form K made according to Example 4.
Background: Differential scanning calorimetry records heat flow against a reference as temperature is scanned.

The nature of data set [5]: Exposure to humidity (XRPD). The class given is physicochemical. The conditions noted are these: exposed to high humidity. The procedure:
(§3) XRPD patterns were obtained using a Bruker D8 Advance equipped with a Cu Kα radiation source (λ=1.54° A), a 9-position sample holder and a LYNXEYE super speed detector. Samples were placed on zero-background, silicon plate holders for analysis. One skilled in the art would recognize that the ° 2θ values and the relative intensity values are generated by performing a peak search on the measured data and the d-spacing values are calculated by the instrument from the ° 2θ values using Bragg's equation. One skilled in the art would further recognize that the relative intensity for the measured peaks may vary as a result of sample preparation, orientation and instrument used, for example.
as §2, §1

Data set [6] is described as follows: Prolonged slurry (form conversion, XRPD). The conditions noted are these: XRPD FIG. 6. The class given is physicochemical. As for the experimental part: as §3, §1

As to `CCOc1cc([C@@H](CS(C)(=O)=O)N2C(=O)c3cccc(NC(C)=O)c3C2=O)ccc1OC` [Apremilast Form H, (+)-2-[1-(3-ethoxy-4-methoxyphenyl)-2-methylsulfonylethyl]-4-acetylaminoisoindoline-1,3-dione], in data set [1], the “stability under stressed conditions” value was “stable”.

In the case of `CCOc1cc([C@@H](CS(C)(=O)=O)N2C(=O)c3cccc(NC(C)=O)c3C2=O)ccc1OC` [Apremilast Form J, (+)-2-[1-(3-ethoxy-4-methoxyphenyl)-2-methylsulfonylethyl]-4-acetylaminoisoindoline-1,3-dione], in data set [2], the “solid form behaviour when dried under vacuum” value is “loses formic acid when dried under vacuum at 45 °C and undergoes a form change, resulting in the anhydrous Form K”.

Turning to `CCOc1cc([C@@H](CS(C)(=O)=O)N2C(=O)c3cccc(NC(C)=O)c3C2=O)ccc1OC` [Apremilast, (+)-2-[1-(3-ethoxy-4-methoxyphenyl)-2-methylsulfonylethyl]-4-acetylaminoisoindoline-1,3-dione], the “inhibition of spontaneous production of TNF-alpha” value in data set [3] is “inhibits spontaneous production of TNF-alpha”. For the same molecule, the PDE4 inhibition entry in the data set with phosphodiesterase (PDE4) is on record as “inhibits PDE4”.

For the molecule `CCOc1cc([C@@H](CS(C)(=O)=O)N2C(=O)c3cccc(NC(C)=O)c3C2=O)ccc1OC` [Form K, (+)-2-[1-(3-ethoxy-4-methoxyphenyl)-2-methylsulfonylethyl]-4-acetylaminoisoindoline-1,3-dione], the “moisture uptake when exposed to air” value in data set [4] is “picks up moisture”. In addition, the “form change when exposed to humidity” value in data set [5] was “does not undergo a significant change”.

Turning to `CCOc1cc([C@@H](CS(C)(=O)=O)N2C(=O)c3cccc(NC(C)=O)c3C2=O)ccc1OC` [Form M, (+)-2-[1-(3-ethoxy-4-methoxyphenyl)-2-methylsulfonylethyl]-4-acetylaminoisoindoline-1,3-dione], the “form conversion upon prolonged slurry” value in data set [6] is “converts to apremilast”. In addition, the “solid form behaviour when dried under vacuum” value in data set [2] was “tends to lose some of the acetic acid when dried under vacuum at 45 °C and results in a semi-crystalline form”.
